Patent publication US10385034B2, “Flavonoid IL-17A inhibitors” (THE CLEVELAND CLINIC FOUNDATION, priority 2014, dated 2019)
pKd: −log10 of the molar value. Entries after “also recorded” stand apart in the source; their conditions may differ.

Columns and labels:
D4M melanoma cells = test: Experimental melanoma lung metastasis; format: in vivo; settings: C57BL/6, 1×10^6 D4M cells tail vein, A18 60 μg/mouse daily, day 20
Method: Melanoma pulmonary metastasis is indicative of poor prognosis. The experimental lung metastasis has been used to test the ability of tumor cell migration, growth at distant sites, effects of drugs for treatment of lung metastasis. In this model, melanoma cells are injected through tail vein, and metastatic lesions can be established in the lung after 2-3 weeks. Here we used this experimental lung metastasis model to test the possible impact of A18 on melanoma re-establishment at distant lung tissue. […] melanoma cells (Jenkins et al., Pigment cell & melanoma research 27, 495-501 (2014)), (1×10^6 cells) were injected into C57BL/6 mouse through tail vein. The control group mice were injected with 200 μl PBS daily, the other group mice were injected with 60 μg A18/mouse daily. The Histological sections were obtained from lung tissue at day 20.

[1] = tested on: IL-17A-induced epidermal hyperplasia; test: Intradermal injection of IL-17A (skin epidermal hyperplasia); format: in vivo, mouse
Method: Intradermal injection of IL-17A. The ears of 8-week WT C57BL/6 female mice were injected intradermally with 20 μl PBS, either alone or containing 500 ng recombinant mouse IL-17A with or without A18 (30 μg per mouse). After 7 days after injection, the mice ears were fixed in 10% formalin in PBS and stained with hematoxylin and eosin (H&E). Epidermal thickness was quantified by Image J.
(§1) Real-time PCR. Total RNA was extracted from spinal cords and cultured astrocytes with TRIzol (Invitrogen) according to the manufacturer's instructions. All gene expression results are expressed as arbitrary units relative to expression of the gene encoding beta-actin.

IL-17RA ECD = molecular target: T1, IL-17RA ECD (Homo sapiens, UniProt Q96F46); test: Surface plasmon resonance (Biacore) binding to immobilized IL-17RA; settings: SPR, IL-17RA immobilized on CM5 chip
T1 construct: using purified the extracellular domain (ECD) of human IL-17RA
T1 sequence (Q96F46 33-320 limits assumed): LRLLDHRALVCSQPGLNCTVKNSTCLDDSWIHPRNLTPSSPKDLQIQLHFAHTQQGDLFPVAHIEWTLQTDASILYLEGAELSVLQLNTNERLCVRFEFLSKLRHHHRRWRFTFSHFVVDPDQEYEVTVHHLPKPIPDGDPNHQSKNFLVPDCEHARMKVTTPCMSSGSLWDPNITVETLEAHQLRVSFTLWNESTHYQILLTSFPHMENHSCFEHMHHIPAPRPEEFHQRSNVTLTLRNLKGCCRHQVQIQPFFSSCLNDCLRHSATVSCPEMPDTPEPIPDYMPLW
Method: Surface plasmon resonance (SPR). Binding of A18 to IL-17RA was conducted on Biacore T100 instrument. Purified IL-17RA was immobilized on CM5 sensor chip using amine coupling kit (GE healthcare). A18 of different concentrations were flown over the chip in PBSPP+ buffer (20 mM Phosphate, 2.7 mM KCl, 137 mM NaCl and 0.05% P20, pH 7.4). The chip was regenerated with 2M GnHCl. Binding KD was determined by Biaevaluation software.

Th17-mediated EAE = test: Adoptive transfer of EAE by Th17; format: in vivo, mouse
Method: Adoptive transfer of EAE by Th17. To prepare MOG-specific polarized Th17 cell populations, drain lymph node cells were prepared from 10-week WT C57BL/6 female mice immunized with MOG 35-55 at day 10 postimmunization. Cells were cultured for 5 days with MOG 35-55 at a concentration of […] under Th17 cell (20 ng/ml IL-23) polarizing condition. For induction of Th17-mediated EAE, 10-week WT C57BL/6J female mice were injected i.p. with 3.0×10^7 polarized MOG 35-55-specific Th17 cells/mouse with or without A18 (30 μg per mouse) 4 h after 500 Rad sublethal irradiation. A18 (30 μg per mouse) was continuously administered i.p. to the treated mice every other day after Th17 injection. At the peak of disease, the mice were sacrificed and perfused with PBS. The spinal cords were fixed in 10% formalin for staining with H&E. The Brains were removed for isolation of infiltrating cells.
Isolation and analysis of inflammatory cells from brain. Brains were homogenized in ice-cold tissue grinders and filtered through a […] cell strainer, and the cells were collected by centrifugation at 400 g for 5 min at 4° C. Cells were resuspended in 10 ml of 30% Percoll (Amersham Bioscience) and centrifuge onto a 70% Percoll cushion in 15 ml tubes at 800 g for 30 min. Cells at the 30%-70% interface were collected and were subjected to flow cytometry. Fluorescence-conjugated CD4, CD8, CD45, Ly6G1 antibodies and isotype controls were purchased from BD Biosciences. F4/80 was obtained from Serotech.
as §1

[2] = tested on: IL-17A-induced gene expression in lung tissue; test: Intranasal injection of IL-17A (lung inflammation); format: in vivo; settings: BALB/c mice, A18 4 μg per mouse intranasal with IL-17A 1 μg, 4 h
Method: Intranasal injection of IL-17A. Eight-week WT BALB/cJ female mice were subjected to intranasal injection of PBS, 1 μg of IL-17A with or without A18 (4 μg per mouse). […]
as §1

IL-17A-IL-17RA binding = molecular target: T2, IL-17A-IL-17RA binding (Homo sapiens, UniProt Q96F46); test: IL-17A-IL-17RA binding assay (ELISA); settings: serial dilutions of compound
T2 construct: human IL-17RA-Fc (extracellular domain 1-322 AA fused with Fc region of human IgG1 at the C-terminus); purchased Sino Biological Inc
T2 sequence (Q96F46 33-322): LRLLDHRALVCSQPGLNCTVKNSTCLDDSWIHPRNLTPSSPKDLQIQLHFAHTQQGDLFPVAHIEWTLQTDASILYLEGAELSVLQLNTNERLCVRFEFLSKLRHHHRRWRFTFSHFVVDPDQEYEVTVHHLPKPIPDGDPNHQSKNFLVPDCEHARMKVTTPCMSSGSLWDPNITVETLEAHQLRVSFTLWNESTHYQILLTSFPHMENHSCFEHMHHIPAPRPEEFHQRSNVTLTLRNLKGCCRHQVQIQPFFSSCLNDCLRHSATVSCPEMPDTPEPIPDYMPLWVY
Method: IL-17A-IL-17RA binding assay. ELISA plates were coated with human IL-17A or IL-17E (2 μg/ml in PBS). Human IL-17RA-Fc or human IL-17RB-Fc (150 ng/ml) were added and incubated for 1 h, followed by incubation with human HRP-conjugated anti human IgG Fc secondary antibody for 1 h. ELISA were finally developed using tetramethylbenzidine substrate.

A549 cells = test: IL-17A-induced CXCL1 (Groα) production, ELISA; format: cell-based, human; settings: A549, IL-17 100 ng/ml, 24 h
Text: Reagents, cell culture and mice. Purified proteins of human IL-17A, human IL-17E (IL-25), human IL-17RA-Fc (extracellular domain 1-322 AA fused with Fc region of human IgG1 at the C-terminus), human IL-17RB-Fc (extracellular domain 1-289 AA fused with Fc region of human IgG1 at the C-terminus), human horseradish peroxidase (HRP)-conjugated IgG Fc secondary antibody were purchased from Sino Biological Inc. Human and mouse IL-17A and mouse IL-23 used for cell culture and animal injection were purchased from R&D Systems. Human mammary epithelial cells were maintained in Medium 171 plus mammary epithelial growth supplement (MEGS) purchased from Invitrogen, which contain bovine pituitary extract (BPE) (0.4% v/v), recombinant human insulin-like growth factor-I (1 μg/ml), hydrocortisone (0.5 μg/ml) and human epidermal growth factor (3 ng/ml). A549 cells were maintained in RPMI supplemented with 10% FCS and 100 U/ml penicillin and 100 μg/ml streptomycin. All mice were obtained from Jackson laboratory.
ELISA. Groα and IL-17A levels were assayed by ELISA kits (R&D systems) according to the manufacturer's instruction.

[3] = A18 30 μg per mouse i.p. every other day

pKd (IL-17RA ECD): 6.65
Compound: Oc1cc(O)c2cc(O)c(-c3ccc(O)c(O)c3)[o+]c2c1.[Cl-] [A18, 2-(3,4-Dihydroxyphenyl)-3,5,7-trihydroxy-1-benzopyrylium chloride]
Lung metastasis tumors (D4M melanoma cells): Fewer and smaller
IL-17A-dependent epidermal hyperplasia ([1]; C57Bl/6 ears, IL-17A 500 ng with A18 30 μg per mouse intradermal, 6 consecutive days): greatly reduced
Levels of C-myc, Pled and Steap4 in IL-17A-treated ears ([1]; RT-PCR): attenuated
EAE disease severity (Th17-mediated EAE; [3]): attenuated
Expression of IL-17-responsive inflammatory genes (CXCL1, IL6, GMCSF, Ccl20) in spinal cords (Th17-mediated EAE; [3]): greatly reduced
Onset of EAE (Th17-mediated EAE; [3]): substantially delayed
Infiltrated cells in spinal cords (Th17-mediated EAE; H&E staining): less infiltrated cells
Infiltration of CD4+, CD8+ T cells and F4/80+ macrophages (Th17-mediated EAE; brain, flow cytometry): did not affect
Recruitment of Ly6G+ neutrophils (Th17-mediated EAE; brain, flow cytometry): substantially reduced
IL-17A-induced gene expression in lung [2]: greatly inhibited
Inhibition of IL-17A-IL-17RA binding (IL-17A-IL-17RA binding): excellent inhibition efficacy; also recorded: great inhibition efficacy
IL-17A-mediated CXCL1 production (A549 cells): greatly inhibited
